From PMC7086363, “All-stage precisional glioma targeted therapy enabled by a well-designed D-peptide” (Theranostics, 2020)
One block for each molecule: values may come before it. Where a SMILES comes first, the peptide text is derived from it. Where no end group is shown, it is not given here. [ ]: non-standard residue; d: D form. Ahx = NCCCCCC(=O)O

Assays:
[1] = test system: intracranial U87 glioma; experiment: Kaplan-Meier survival of intracranial glioma bearing nude mice; type: in vivo; settings: n = 8
Description: The intracranial glioma bearing mice were used to evaluate the anti-glioma efficacy of various therapeutic regimen.
Concurrent combination chemotherapy has been emerging as a promising approach to improve the efficacy of cancer therapy [29]-[31]. Thus, ^DWVAP Micelle/PTL was used in combination with TMZ and ^DWVAP Micelle/PTX respectively in the present study. For TMZ dosage regimen, mice were randomly divided into four groups (n = 8) and treated with 100 μL of saline, ^DWVAP Micelle/PTL (5 mg/kg), TMZ (10 mg/kg) and ^DWVAP Micelle/PTL plus TMZ (5 mg/kg and 10 mg/kg, respectively) via oral gavage or tail vein. […] Compared with TMZ, the combinational therapy prolonged the median survival time by 2.10 times (Figure 6A). […] The slices were also stained with anti-CD133 antibody to quantify glioma stem cells. […]
Figure 6 Kaplan-Meier survival curves of intracranial glioblastoma-implanted nude mice treated with different regimens. […] Quantification of angiogenesis inhibition in tumors with different formulations in comparison to saline group (D). […] Quantification of TUNEL positive cells in tumors with different formulations in comparison to saline group (F). […] Quantification of tumor stem cell inhibition in tumors with different formulations in comparison to saline group (H). […]

[2] = test system: NF-κB p65 nuclear translocation in U87 cells; experiment: NF-κB activation and nuclear translocation assay (immunofluorescence); type: cell-based; settings: 24 h treatment, Figure 7D-F
Text: NF-κB plays a pivotal role in tumorigenesis through multiple signaling pathways. Aberrant activation of NF-κB has been observed in various types of cancer. Constitutive activation of NF-κB often causes bad response or resistance to chemotherapeutics, tumor recurrence, and poor outcome of treatment. Conversely, inhibition of NF-κB could sensitize the glioma cells to chemotherapy. The combination of PTL with PTX and TMZ in the present study enhanced anti-glioma efficacy in experimental animals. Since PTL is a potent inhibitor of NF-κB, the inhibitory activities of different PTL formulations on NF-κB pathway were examined. Immunofluorescence was used to detect NF-κB activation and nuclear translocation. After treatment with different formulations for 24 h, cells were processed for confocal fluorescence microscopic imaging. […] In addition, we also analyzed the p65 protein level in the nucleus of U87 cells by western blotting (Figure S7) and the results were consistent with immunofluorescence.
NF-κB activation and nuclear translocation assay was performed according to the reagent manufacturer's instructions (Beyotime Biotech, China). Briefly, cells were seeded in four-well disk and then treated with different drug loaded micelles or free drug alone or in combinations for 24 h. […] The protein concentrations were quantified using BCA Protein Assay Kit (Thermo Fisher Scientific). […]

[3] = test system: U87 cells; experiment: Cellular internalization of fluorescein labelled peptides in U87 cells (flow cytometry); type: cell-based; settings: 4 hours, Figure S1
Description: (§1) The targeting ability of ^DWVAP was evaluated in primary rat brain capillary endothelial cells (BCECs), HUVECs and U87 cells. […] OPC cells were previously proven as a cell line of glioma cell-of-origin with under-appreciated proliferative and plastic potentials. OPC cells were used here to evaluate the GSCs targeting effect of the developed peptides. […] In vivo, near-infrared dye Cy7 was conjugated with peptides and the conjugates were intravenously injected via the tail vein to test the targeting effect of ^DWVAP.
(§2) Brain capillary endothelial cells (BCEC), U87 cells and HUVEC cells were used to investigate the peptides targeting ability since they were main component of BBB, tumor and tumor vessels respectively. OPC cells were used to evaluate the glioma stem cell targeting ability in vitro [38]. Cellular uptake behavior was observed by the confocal microscope and the fluorescent intensity was captured by flow cytometry 4 hours after pre-incubation with different fluorescein labelled peptides.

[4] = test system: HUVECs; experiment: Cellular internalization of fluorescein labelled peptides in HUVECs (flow cytometry); type: cell-based, human; settings: 4 hours, Figure S1
Description: as §1, §2

[5] = test system: OPC cells; experiment: Cellular internalization of fluorescein labelled peptides in OPC cells (GSC targeting); type: cell-based; settings: confocal microscopy, Figure 2E
Description: as §1, §2

[6] = molecular target: T1, Recombinant human GRP78 protein (human, UniProt P11021 19-654); experiment: SPR; Biacore T200; recombinant human GRP78 amine-coupled to a CM5 sensor chip; peptides in 2-fold serial dilution injected at 30 µL/min; buffer HBS-N or HBS-EP (methods); settings: both partners purified
T1 construct: GRP78, human, recombinant; No catalogue number, tag or limits printed; source: bought: Abcam
T1 sequence (P11021 19-654): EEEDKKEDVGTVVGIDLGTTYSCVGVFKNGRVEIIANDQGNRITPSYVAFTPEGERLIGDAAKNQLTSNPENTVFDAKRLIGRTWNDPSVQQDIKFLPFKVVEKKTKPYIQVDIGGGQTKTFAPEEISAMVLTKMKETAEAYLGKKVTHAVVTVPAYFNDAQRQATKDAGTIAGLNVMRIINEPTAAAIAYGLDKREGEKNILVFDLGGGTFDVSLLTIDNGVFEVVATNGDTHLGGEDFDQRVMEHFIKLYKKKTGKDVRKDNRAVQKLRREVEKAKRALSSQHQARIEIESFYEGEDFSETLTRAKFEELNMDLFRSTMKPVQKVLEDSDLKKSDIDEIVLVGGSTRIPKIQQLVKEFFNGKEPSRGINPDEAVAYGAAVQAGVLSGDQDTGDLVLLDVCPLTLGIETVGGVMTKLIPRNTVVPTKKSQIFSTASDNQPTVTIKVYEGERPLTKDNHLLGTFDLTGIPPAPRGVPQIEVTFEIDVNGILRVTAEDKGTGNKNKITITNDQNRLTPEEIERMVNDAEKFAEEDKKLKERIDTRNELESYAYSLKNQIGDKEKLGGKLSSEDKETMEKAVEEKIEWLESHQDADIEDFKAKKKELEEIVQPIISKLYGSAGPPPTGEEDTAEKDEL

Molecule: C=C1C(=O)O[C@H]2[C@H]1CC/C(C)=C/CC[C@@]1(C)O[C@@H]21 [PTL, Parthenolide]
- median survival ([1]; Figure S5B, 5 mg/kg PTL at 6, 8, 10, 12 and 14 days post-tumor implantation, saline 29.5 days): 32 days
- p65 nuclear translocation [2]: inhibition of p65

Molecule: CC(=O)O[C@H]1C(=O)[C@@]2(C)[C@H]([C@H](OC(=O)c3ccccc3)[C@]3(O)C[C@H](OC(=O)[C@H](O)[C@@H](NC(=O)c4ccccc4)c4ccccc4)C(C)=C1C3(C)C)[C@]1(OC(C)=O)CO[C@@H]1C[C@@H]2O [Taxol, Paclitaxel]
- median survival time ([1]; Figure S5A, four injections, 6 mg/kg PTX each, at 6, 9, 12 and 15 days after implantation): 20 days

Molecule: CC(C)[C@@H](NC(=O)[C@@H](CCCNC(=N)N)NC(=O)[C@H](NC(=O)[C@@H](CC(N)=O)NC(=O)[C@H](N)CO)[C@H](C)O)C(=O)N[C@H](C)C(=O)N1CCC[C@@H]1C(=O)N[C@H](CS)C(=O)O [^DVAP] (HELM PEPTIDE1{[dS].[dN].[dT].[dR].[dV].[dA].[dP].[dC]}$$$$V2.0; N-terminus and C-terminus assumed)
- fluorescence-positive U87 cells [3]: More than 90%
- fluorescence-positive HUVECs [4]: > 80%
- uptake by OPC cells [5]: effectively taken up

- Kd [6]: 102 nM
B1: ^DVAP peptide (peptide)
peptide: [dS][dN][dT][dR][dV][dA][dP][dC]
notes: all-D peptide ligand of GRP78; also called ^DS^DN^DT^DR^DV^DA^DP; ^DS^DN^DT^DR^DV^DA^DP^DC; source: synthetic peptide, bought: Karebay Biochem

- Kd [6]: 686 nM
B2: "Y-shaped" ^DWVAP peptide (peptide)
peptide: [dS][dN][dT][dR][dV][dA][dP][dC][Ahx][dW][dS][dW]G[dP][dY][dS]
modifications: not fully specified
notes: ^DVAP stretch (all-D) with D-Cys, ligand of GRP78; ^DWSW stretch (all-D), quorum-sensing peptide; joined to the first stretch through aminocaproic acid (Ahx), which has no one-letter code; also called ^DWVAP-Cys; ^DS^DN^DT^DR^DV^DA^DP^DC-Ahx-^DW^DS^DW^DG^DP^DY^DS; source: synthetic peptide (solid phase peptide synthesis)
